Measured values as given in US8470871B2, “Ligands that modulate RAR receptors” (Galderma Research & Development, priority 2004, dated 2013).
Where a name gives a salt, the structure may show the parent alone.

Legend:
[1] = target: T1, RARbeta (Homo sapiens, UniProt P10826); experiment: Transactivation test (Kdapp), RARbeta; format: cell-based; conditions: HeLa stable transfectants, luciferase reporter, crossed curves against reference agonist, Schild regression
T1 sequence (P10826 183-417 limits assumed): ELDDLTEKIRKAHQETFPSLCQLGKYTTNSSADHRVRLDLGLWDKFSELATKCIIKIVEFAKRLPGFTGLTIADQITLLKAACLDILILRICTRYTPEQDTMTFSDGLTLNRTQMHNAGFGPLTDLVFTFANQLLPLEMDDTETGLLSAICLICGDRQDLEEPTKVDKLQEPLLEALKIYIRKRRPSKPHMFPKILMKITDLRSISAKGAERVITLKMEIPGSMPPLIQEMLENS
Experimental: (§1) The activation of receptors with an agonist (activator) in HeLa cells leads to the expression of a reporter gene, luciferase, which, in the presence of a substrate, generates light. The activation of the receptors may thus be measured by quantifying the luminescence produced after incubating the cells in the presence of a reference agonist. The inhibitory products displace the agonist from its site, thus preventing activation of the receptor. The activity is measured by quantifying the reduction in light produced. This measurement makes it possible to determine the inhibitory activity of the compounds according to the invention.
(§2) In this study, a constant is determined which is the affinity of the molecule for the receptor. Since this value can fluctuate depending on the basal activity and the expression of the receptor, it is referred to as the Kd apparent (KdApp).
(§3) To determine this constant, “crossed curves” of the test product against a reference agonist, 4-[2-(5,5,8,8-tetramethyl-5,6,7,8-tetrahydro-2-naphthyl)propenyl]benzoic acid, are performed in 96-well plates. The test product is used at 10 concentrations and the reference agonist at 7 concentrations. In each well, the cells are in contact with a concentration of the test product and a concentration of the reference agonist, 4-[2-(5,5,8,8-tetramethyl-5,6,7,8-tetrahydro-2-naphthyl)propenyl]benzoic acid. Measurements are also taken for the total agonist (4-[2-(5,5,8,8-tetramethyl-5,6,7,8-tetrahydro-2-naphthyl)propenyl]benzoic acid) and inverse agonist, 4-{(E)-3-[4-(4-tert-butylphenyl)-5,5,8,8-tetramethyl-5,6,7,8-tetrahydro-2-naphthyl]-3-oxopropenyl}benzoic acid, controls.
(§4) The HeLa cell lines used are stable transfectants containing the plasmids ERE-βGlob-Luc-SV-Neo (reporter gene) and RAR (α, β, γ) ER-DBD-puro. These cells are inoculated into 96-well plates at a rate of 10,000 cells per well in 100 μl of DMEM medium without phenol red, and supplemented with 10% defatted calf serum. The plates are then incubated at 37° C. and 7% CO2 for 4 hours.
(§5) The plates are then incubated for 18 hours at 37° C. and 7% CO2.
(§6) The culture medium is removed by turning over and 100 μl of a 1:1 PBS/luciferine mixture is added to each well. After 5 minutes, the plates are read using the luminescence reader.

[2] = target: T2, RARalpha (Homo sapiens, UniProt P10276); experiment: Transactivation test (Kdapp), RARalpha; format: cell-based; conditions: HeLa stable transfectants, luciferase reporter, crossed curves against reference agonist, Schild regression
T2 sequence (P10276 183-417 limits assumed): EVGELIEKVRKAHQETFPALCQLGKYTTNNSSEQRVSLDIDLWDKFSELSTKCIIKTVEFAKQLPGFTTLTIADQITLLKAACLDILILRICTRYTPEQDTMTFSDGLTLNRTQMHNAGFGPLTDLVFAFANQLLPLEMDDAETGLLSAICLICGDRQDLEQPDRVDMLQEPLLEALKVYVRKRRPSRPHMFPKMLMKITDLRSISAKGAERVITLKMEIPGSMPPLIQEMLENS
Experimental: as §1, §2, §3, §4, §5, §6

| Structure (SMILES) | Kd [1] [nM] | Kd [2] [nM] | Kd ([1]; hydrochloride) [nM] | Kd ([2]; hydrochloride) [nM] |
| --- | --- | --- | --- | --- |
| CCN(C(C)=O)c1ccc(-c2cc(-c3ccc(C(=O)O)cc3)ccc2OCCCCO)cc1C(C)(C)C [Example 5, 4″-(acetylethylamino)-3″-tert-butyl-4′-(4-hydroxybutoxy)-[1,1′;3′,1″]terphenyl-4-carboxylic acid] | 8 | 8 | – | – |
| CCc1cc(-c2cc(-c3ccc(C(=O)O)cc3)ccc2OCCO)ccc1N(CC)CC [Example 13, 4″-diethylamino-3″-ethyl-4′-(2-hydroxyethoxy)-[1,1′;3′,1″]terphenyl-4-carboxylic acid] | 4 | 500 | – | – |
| CCNc1ccc(-c2cc(-c3ccc(C(=O)O)cc3)ccc2OCCCO)cc1C(C)(C)C [Example 54, 3″-tert-butyl-4″-ethylamino-4′-(3-hydroxypropoxy)-[1,1′;3′,1″]terphenyl-4-carboxylic acid] | 4 | 8 | – | – |
| CCN(C(C)=O)c1ccc(-c2cc(-c3ccc(C(=O)O)cc3)ccc2CCCNC2CC2)cc1C(C)(C)C [Example 47, 4″-(acetylethylamino)-3″-tert-butyl-4′(3-cyclopropylaminopropyl)[1,1′;3′,1″]terphenyl-4-carboxylic acid] | 250 | – | – | – |
| CCN(CC)c1ccc(-c2cc(-c3ccc(C(=O)O)cc3)ccc2OCCCO)cc1C [Example 17, 4″-diethylamino-4′-(3-hydroxypropoxy)-3″-methyl[1,1′;3′,1″]terphenyl-4-carboxylic acid] | 8 | 250 | – | – |
| CCN(C(C)=O)c1ccc(-c2cc(-c3ccc(C(=O)O)cc3)ccc2CCCO)cc1C(C)(C)C [Example 37, 4″-(acetylethylamino)-3″-tert-butyl-4′-(3-hydroxypropyl)-[1,1′;3′,1″]terphenyl-4-carboxylic acid] | 120 | 250 | – | – |

The remaining lines, values ahead:

| Kd [1] [nM] | Kd [2] [nM] | Kd ([1]; hydrochloride) [nM] | Kd ([2]; hydrochloride) [nM] | Structure (SMILES) |
| --- | --- | --- | --- | --- |
| 8 | 60 | – | – | CCN(CC)c1ccc(-c2cc(-c3ccc(C(=O)O)cc3)ccc2CCCO)cc1C(C)(C)C [Example 33, 3″-tert-butyl-4″-diethylamino-4′-(3-hydroxypropyl)-[1,1′;3′,1″]terphenyl-4-carboxylic acid] |
| – | – | 2 | 30 | CCN(CC)c1ccc(-c2cc(-c3ccc(C(=O)O)cc3)ccc2CCCO)cc1C(C)(C)C [Example 52, [3″-tert-butyl-4-carboxy-4′-(3-hydroxypropyl)-[1,1′;3′,1″]terphenyl-4″-yl]diethylamine hydrochloride] |
| 500 | 4000 | – | – | CCN(CC)c1ccc(-c2cc(-c3ccc(C(=O)O)cc3)ccc2CC(O)CO)cc1C(C)(C)C (centres unmarked) [Example 35, 3″-tert-butyl-4″-diethylamino-4′-(2,3-dihydroxypropyl)-[1,1′;3′,1″]terphenyl-4-carboxylic acid] |
